Paper PMC4594923, “Food Polyphenols Fail to Cause a Biologically Relevant Reduction of COX-2 Activity” (PLoS ONE, 2015)
Where “and” joins values, the source holds several entries; their conditions need not be identical. Equal entries are not always repeated. Entries after “also recorded” stand apart in the source; their conditions may differ.

Legend:
COX–2 protein [1] = assay: COX–2 expression in LPS stimulated primary human monocytes (Western Blot); conditions: 24 h, vs. control
Description: (§1) Primary human monocytes were freshly isolated from human blood. Blood was collected from healthy human subjects after written informed consent was obtained. […] After 24 h, the supernatant was sampled for LC-MS and cells were collected for the COX–2 expression analysis by Western Blotting.

COX–2 [2] = biological target: T1, COX–2 (Homo sapiens, UniProt P35354); assay: PGE2 formation in HCA–7 cells (24 h, LC-MS); type: cell-based; conditions: for IC50 (95% CI), HCA-7 cell line: calculated based on PGE2, n = 3, 24 h; for changes of PGE2 formation in HCA–7 cells: non-cytotoxic concentrations, 24 h
T1 sequence (P35354 18-604): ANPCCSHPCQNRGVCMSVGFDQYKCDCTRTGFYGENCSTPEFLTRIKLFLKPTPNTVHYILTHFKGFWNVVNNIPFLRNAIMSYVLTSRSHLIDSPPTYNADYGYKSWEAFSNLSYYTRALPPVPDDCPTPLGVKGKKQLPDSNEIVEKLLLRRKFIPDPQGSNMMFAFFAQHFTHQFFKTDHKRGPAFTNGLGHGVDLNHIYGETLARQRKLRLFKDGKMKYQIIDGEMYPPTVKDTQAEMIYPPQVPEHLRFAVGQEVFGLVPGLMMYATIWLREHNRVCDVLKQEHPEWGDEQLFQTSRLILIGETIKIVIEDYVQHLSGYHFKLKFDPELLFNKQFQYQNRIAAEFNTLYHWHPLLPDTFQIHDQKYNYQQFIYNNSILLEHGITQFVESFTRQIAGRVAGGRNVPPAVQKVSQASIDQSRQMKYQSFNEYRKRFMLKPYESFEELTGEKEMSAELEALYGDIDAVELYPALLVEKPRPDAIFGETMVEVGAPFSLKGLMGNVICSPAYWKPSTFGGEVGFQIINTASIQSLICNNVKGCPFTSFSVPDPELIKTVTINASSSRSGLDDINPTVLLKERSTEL
Description: (§2) The in vitro assays were performed as described [6, 16, 18] and COX metabolites were quantified by LC-MS [18].
(§3) HCA–7 cells were incubated with sub-cytotoxic concentrations of the polyphenols dissolved in Tris buffered DMEM medium. Cytotoxicity of the polyphenols was evaluated by the lactate dehydrogenase leakage test (Cyto-Tox-ONE, Promega Mannheim, Germany). After 24 h the supernatant was collected for LC-MS analysis and the cells were harvested to analyze the COX–2 expression by Western Blotting.
After 24 h, the supernatant was sampled for LC-MS and cells were collected for the COX–2 expression analysis by Western Blotting.
(§4) GraphPad Prism 5.0 (GraphPad Software, San Diego, USA) was used for data analysis, the fitting of dose response curves and calculation of the IC50 values. Statistical differences were determined by Dunnetts test (LPS vs. other groups).

ovine recombinant COX–1 = biological target: T2, ovine recombinant COX–1 (Ovis aries, UniProt P05979); assay: cell-free COX–1 enzyme assay (PGE2 formation, LC-MS); type: biochemical; set-up: purchased Cayman Chemicals/ Biomol, Hamburg, Germany; conditions: for IC50 / IC50 (95% CI), COX–1 enzyme assay: calculated based on PGE2, n = 3; for IC50: read-out: IC50 (95% CI), COX–1 enzyme assay
T2 sequence (P05979 25-600): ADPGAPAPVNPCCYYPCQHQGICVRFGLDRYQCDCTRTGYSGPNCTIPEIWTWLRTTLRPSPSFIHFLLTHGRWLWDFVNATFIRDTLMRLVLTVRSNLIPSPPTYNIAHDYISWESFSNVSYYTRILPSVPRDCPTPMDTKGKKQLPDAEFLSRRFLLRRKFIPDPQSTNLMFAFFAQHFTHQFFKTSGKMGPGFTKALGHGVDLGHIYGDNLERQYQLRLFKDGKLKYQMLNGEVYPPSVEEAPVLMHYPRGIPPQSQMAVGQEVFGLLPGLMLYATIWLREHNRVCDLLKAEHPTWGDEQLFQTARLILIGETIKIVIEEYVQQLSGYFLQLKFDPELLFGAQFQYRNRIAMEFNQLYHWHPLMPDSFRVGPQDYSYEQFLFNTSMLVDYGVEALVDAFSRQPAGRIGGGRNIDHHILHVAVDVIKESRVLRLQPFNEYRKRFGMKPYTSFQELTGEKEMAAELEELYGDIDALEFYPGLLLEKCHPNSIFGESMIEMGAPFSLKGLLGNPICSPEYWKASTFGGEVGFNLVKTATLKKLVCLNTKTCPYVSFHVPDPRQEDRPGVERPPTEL

COX–2 [3] = biological target: T1, COX–2; assay: cell-free COX–2 enzyme assay (PGE2 formation, LC-MS); type: biochemical; conditions: for IC50 / IC50 (95% CI), COX–2 enzyme assay: calculated based on PGE2, n = 3; for IC50: read-out: IC50 (95% CI), COX–2 enzyme assay
Description: as §2, §1, §4

COX–2 [4] = biological target: T1, COX–2; assay: PGE2 formation in LPS stimulated primary human monocytes (24 h, LC-MS); type: cell-based; conditions: for IC50: read-out: IC50 (95% CI), primary monocytes
Description: as §2, §1, §4

COX–2 [5] = conditions: cited from earlier work
COX–2 protein [6] = conditions: cited from earlier work
COX–2 protein [7] = assay: COX–2 expression in HCA–7 cells (Western Blot); type: cell-based, human; conditions: 24 h, vs. control
Description: as §3

[8] = cited from earlier work
[9] = LPS stimulated, calculated based on PGE2, n = 3, 24 h

Compound | COX-2 Expression, primary monocytes (COX–2 protein [1]) | IC50 (95% CI), HCA-7 cell line (COX–2 [2]) | changes of PGE2 formation in HCA–7 cells (COX–2 [2]) | effect on COX–1 dependent PGE2 formation, cell-free enzyme assay (ovine recombinant COX–1) | IC50 (ovine recombinant COX–1) [µM] | effect on COX–2 dependent PGE2 formation, cell-free enzyme assay (COX–2 [3]) | IC50 (COX–2 [3]) [µM] | COX-2 Expression, HCA-7 cell line (COX–2 protein [7]) | IC50 (95% CI), COX–1 enzyme assay (ovine recombinant COX–1) | IC50 (95% CI), COX–2 enzyme assay (COX–2 [3]) | IC50 (COX–2 [4]; [9]) [µM] | COX–2 protein levels, LPS stimulated RAW 264.7 cells (COX–2 protein [6]) | further results
O=C(O[C@@H]1Cc2c(O)cc(O)cc2O[C@@H]1c1cc(O)c(O)c(O)c1)c1cc(O)c(O)c(O)c1 [EGCG, epigallocatechingallat] | Decreased COX–2 protein levels and 10 μM:COX–2 ↓ | no effect (up to 10 μM) | no or only slight | dose-dependently decreased; also recorded: inhibited | 17 | dose-dependently decreased; also recorded: inhibited | 32 | no effect(up to 10 μM) |  |  |  |  | IC50 (95% CI), primary monocytes (COX–2 [4]; [9]): no effect(up to 10 μM); PGE2 formation / levels, RAW 264.7 cells (COX–2 [5]): lack of effect; COX–2 (protein) levels, RAW 264.7 cells (COX–2 protein [6]): slight increase; maximal plasma concentrations ([8]; in vivo): 0.13 to 0.33 µM
COc1ccc(-c2cc(=O)c3c(OC)c(OC)c(OC)c(OC)c3o2)cc1OC [Nobiletin, nobiletin] | no effect(up to 100 μM) |  | no or only slight; also recorded: affected | no effect |  | no effect |  | 100 μM:COX–2 ↓ | no effect (up to 100 μM) | no effect (up to 100 μM) | 24 | decreased COX–2 protein levels | inhibition, HCA-7 cell line (COX–2 [2]; up to 100 μM): inhibition < 50%(up to 100 μM); COX-2 Expression, HCA-7 cell line (COX–2 protein [7]; listed as nobiletin): decreased COX–2 expression
hopeaphenol | 1 μM: COX–2 ↓ | no effect (up to 1 μM) | no or only slight | dose-dependently decreased; also recorded: inhibited | 4 | dose-dependently decreased; also recorded: inhibited | 22 | no effect (up to 1 μM) |  |  |  |  | COX-2 Expression, primary monocytes (COX–2 protein [1]; listed as hopeaphenol): Decreased COX–2 protein levels; inhibition, primary monocytes (COX–2 [4]; up to 1 μM): inhibition < 50% (up to 1 μM)
COc1c(O)cc(O)c2c(=O)cc(-c3ccccc3)oc12 [Wogonin, wogonin] |  |  |  | no effect |  |  |  |  | no effect (up to 100 μM) |  |  |  | IC50 (COX–2 [5]; read-out: IC50, LPS stimulated murine macrophages): 0.3 µM
O=C1C[C@@H](c2ccc(O)cc2)Oc2cc(O)cc(O)c21 [Naringenin, naringenin] | 100, 30 μM:COX–2 ↓ |  | affected | no effect |  | no effect |  | 100 μM:COX–2 ↓ | no effect (up to 100 μM) | no effect (up to 100 μM) | 29 | decreased COX–2 protein levels | COX-2 Expression, primary monocytes (COX–2 protein [1]; listed as naringenin): Decreased COX–2 protein levels; inhibition at 100 µM (COX–2 [2]; HCA-7, 100 μM, read-out: inhibition, HCA-7 cell line): 53%; COX-2 Expression, HCA-7 cell line (COX–2 protein [7]; listed as naringenin): decreased COX–2 expression; plasma peak level, total naringenin (free and conjugated form) ([8]; humans, ingestion of grapefruit juice (0.2 g total naringenin)): 6 µM
